Laboratory results taken from article PMC3147153 (Clinical cancer research : an official journal of the …, 2009).
Where two headings read alike, the source gives them in different places.

Experiments:
[1] = Whole blood pharmacokinetics, LC-MS/MS, noncompartmental analysis; type: in vivo, patients; settings: for half-life / AUC / Cmax / Vd / clearance: human, whole blood
[2] = test system: 4E-BP1 phosphorylated at Ser^65/Thr^70; assay: 4E-BP1 phosphorylation in peripheral blood mononuclear cells; type: in vivo, patients; settings: PBMC, 7 days after infusion, all doses
[3] = test system: target lesions (solid tumors); assay: Tumor response by Response Evaluation Criteria in Solid Tumors; type: in vivo, patients
Laboratory variables = type: in vivo; settings: patients who received at least three doses; 95% CI −22.1 to −2.6
[4] = in vivo
CYP3A4 = settings: in vitro; ref studies done by Ariad Pharmaceuticals; cited from earlier work
[5] = i.v. daily for 5 days every 2 weeks; ref 14 (Mita et al.); cited from earlier work
human tumor cell lines = settings: cited from earlier work
xenografts = settings: cited from earlier work
CYP3A5 = settings: in vitro; ref studies done by Ariad Pharmaceuticals; cited from earlier work
[6] = two multiple-dose toxicology studies in rats; ref nonclinical studies; cited from earlier work
[7] = Phase I dose escalation: safety, tolerability, MTD, DLT and adverse events
[8] = dose level 6.25 mg, 2 patients entered
[9] = dose level 12.5 mg, 3 patients entered
[10] = dose level 25 mg, 4 patients entered
[11] = dose level 50 mg, 16 patients entered
[12] = dose level 75 mg, 17 patients entered
[13] = dose level 100 mg, 4 patients entered

Compound: CO[C@H]1C[C@@H]2CC[C@@H](C)[C@@](O)(O2)C(=O)C(=O)N2CCCC[C@H]2C(=O)O[C@H]([C@H](C)C[C@@H]2CC[C@@H](OP(C)(C)=O)[C@H](OC)C2)CC(=O)[C@H](C)/C=C(\C)[C@@H](O)[C@@H](OC)C(=O)[C@H](C)C[C@H](C)/C=C/C=C/C=C/1C [deforolimus]
- dose proportionality of AUC ([1]; dose range 6.25 to 100 mg): increased less than proportionally with an increase in dose
- dose proportionality of Cmax ([1]; dose range 6.25 to 100 mg): increased less than proportionally with an increase in dose
- half-life ([1]; intravenous): 45 to 52 h
- AUC ([1]; iv, 6.25 mg): 3800 ng·h/mL
- Cmax ([1]; iv, 6.25 mg): 329 ng/mL
- Vd ([1]; iv, 6.25 mg): 80.3 L
- clearance ([1]; iv, 6.25 mg): 28.3 mL/min
- half-life ([1]; iv, 6.25 mg): 52.2 h
- AUC ([1]; iv, 12.5 mg): 5100 ng·h/mL
- Cmax ([1]; iv, 12.5 mg): 394 ng/mL
- Vd ([1]; iv, 12.5 mg): 111 L
- clearance ([1]; iv, 12.5 mg): 45 mL/min
- AUC ([1]; iv, 25 mg): 9000 ng·h/mL
- Cmax ([1]; iv, 25 mg): 570 ng/mL
- Vd ([1]; iv, 25 mg): 136 L
- clearance ([1]; iv, 25 mg): 48.3 mL/min
- half-life ([1]; iv, 25 mg): 46.2 h
- AUC ([1]; iv, 50 mg): 10700 ng·h/mL
- Cmax ([1]; iv, 50 mg): 982 ng/mL
- Vd ([1]; iv, 50 mg): 235 L
- clearance ([1]; iv, 50 mg): 81.7 mL/min
- half-life ([1]; iv, 50 mg): 44.9 h
- AUC ([1]; iv, 75 mg): 12700 ng·h/mL
- Cmax ([1]; iv, 75 mg): 1200 ng/mL
- Vd ([1]; iv, 75 mg): 323 L
- clearance ([1]; iv, 75 mg): 107 mL/min
- half-life ([1]; iv, 75 mg): 47.3 h
- AUC ([1]; iv, 100 mg): 13400 ng·h/mL
- Cmax ([1]; iv, 100 mg): 1260 ng/mL
- Vd ([1]; iv, 100 mg): 373 L
- clearance ([1]; iv, 100 mg): 128 mL/min
- half-life ([1]; iv, 100 mg): 46 h
- clearance difference, greater in females, estimated from the model ([1]; regression model with dose and gender, SE 0.41): 1.49 L/h
- median inhibition of 4E-BP1 phosphorylation [2]: > 70%
- patients with disease progression ([3]; 34 evaluable, after two cycles): 12 patients
- patients with stable disease ([3]; 34 evaluable, after two cycles): 21 patients
- patients with partial response ([3]; 34 patients evaluable for response): 1 patient
- correlation r, AUC versus percent change in sum of target lesions ([3]; after two cycles, n = 32, P = 0.015): −0.43
- correlation r, dose versus percent change in sum of target lesions ([3]; after two cycles, n = 33, P = 0.28): −0.19
- shrinkage in target lesions ([3]; one patient with transitional cell carcinoma of the bladder, after two cycles): 34%
- estimated slope of nadir platelet count versus dose (Laboratory variables): −12.3 × 10^3/μL per 10 mg increase i
- Abdominal pain, number of adverse events, any grade ([4]; human): 14
- Nausea, number of adverse events, any grade ([4]; human): 26
- Rash, number of adverse events, any grade ([4]; human): 22
- incidence of anorexia ([4]; human): 67%
- incidence of diarrhea ([4]; human): 50%
- incidence of fatigue ([4]; human): 76%
- incidence of mucositis ([4]; human): 63%
- incidence of nausea ([4]; human): 57%
- patients who experienced an adverse event ([4]; human): 46 patients
- tolerability of the dose level [4]: intolerable
- metabolism by CYP3A4 (CYP3A4): primarily metabolized by CYP3A4
- incidence of hypercholesterolemia [5]: 28%
- incidence of hyperglycemia [5]: 28%
- incidence of hypertriglyceridemia [5]: 41%
- effect on proliferation of human tumor cell lines (human tumor cell lines): inhibits proliferation
- effect on proliferation of xenografts (xenografts): inhibits proliferation
- metabolism by CYP3A5 (CYP3A5): to a lesser extent
- no effect dose level / severely toxic dose level [6]: neither a no effect dose level nor a severely toxic dose level was identified
- Abdominal pain, number of adverse events, any grade ([7]; 6.25 mg (n = 2)): 0
- Anemia, number of adverse events, any grade ([7]; 6.25 mg (n = 2)): 0
- Anorexia, number of adverse events, any grade ([7]; 6.25 mg (n = 2)): 2
- Constipation, number of adverse events, any grade ([7]; 6.25 mg (n = 2)): 1
- Cough, number of adverse events, any grade ([7]; 6.25 mg (n = 2)): 0
- Diarrhea, number of adverse events, any grade ([7]; 6.25 mg (n = 2)): 1
- Dysgeusia, number of adverse events, any grade ([7]; 6.25 mg (n = 2)): 1
- Fatigue, number of adverse events, any grade ([7]; 6.25 mg (n = 2)): 2
- Hyperglycemia, number of adverse events, any grade ([7]; 6.25 mg (n = 2)): 0
- Hypophosphatemia, number of adverse events, any grade ([7]; 6.25 mg (n = 2)): 0
- Mucosal inflammation, number of adverse events, any grade ([7]; 6.25 mg (n = 2)): 0
- Anemia, number of adverse events, any grade ([7]; 12.5 mg (n = 3)): 1
- Anorexia, number of adverse events, any grade ([7]; 12.5 mg (n = 3)): 2
- Constipation, number of adverse events, any grade ([7]; 12.5 mg (n = 3)): 2
- Cough, number of adverse events, any grade ([7]; 12.5 mg (n = 3)): 0
- Diarrhea, number of adverse events, any grade ([7]; 12.5 mg (n = 3)): 2
- Dysgeusia, number of adverse events, any grade ([7]; 12.5 mg (n = 3)): 0
- Fatigue, number of adverse events, any grade ([7]; 12.5 mg (n = 3)): 2
- Hyperglycemia, number of adverse events, any grade ([7]; 12.5 mg (n = 3)): 0
- Hypophosphatemia, number of adverse events, any grade ([7]; 12.5 mg (n = 3)): 0
- Mucosal inflammation, number of adverse events, any grade ([7]; 12.5 mg (n = 3)): 1
- Abdominal pain, number of adverse events, any grade ([7]; 25 mg (n = 4)): 0
- Anemia, number of adverse events, any grade ([7]; 25 mg (n = 4)): 1
- Anorexia, number of adverse events, any grade ([7]; 25 mg (n = 4)): 4
- Constipation, number of adverse events, any grade ([7]; 25 mg (n = 4)): 2
- Cough, number of adverse events, any grade ([7]; 25 mg (n = 4)): 0
- Diarrhea, number of adverse events, any grade ([7]; 25 mg (n = 4)): 2
- Dysgeusia, number of adverse events, any grade ([7]; 25 mg (n = 4)): 0
- Fatigue, number of adverse events, any grade ([7]; 25 mg (n = 4)): 3
- Hyperglycemia, number of adverse events, any grade ([7]; 25 mg (n = 4)): 0
- Hypophosphatemia, number of adverse events, any grade ([7]; 25 mg (n = 4)): 0
- Mucosal inflammation, number of adverse events, any grade ([7]; 25 mg (n = 4)): 1
- Anemia, number of adverse events grade 3 or 4 ([7]; 50 mg (n = 16)): 1
- Anemia, number of adverse events, any grade ([7]; 50 mg (n = 16)): 5
- Dysgeusia, number of adverse events, any grade ([7]; 50 mg (n = 16)): 3
- Hyperglycemia, number of adverse events grade 3 or 4 ([7]; 50 mg (n = 16)): 2
- Hyperglycemia, number of adverse events, any grade ([7]; 50 mg (n = 16)): 5
- Hypophosphatemia, number of adverse events grade 3 or 4 ([7]; 50 mg (n = 16)): 3
- Hypophosphatemia, number of adverse events, any grade ([7]; 50 mg (n = 16)): 4
- patients discontinued from the study due to adverse events ([7]; 50 mg dose level): 3 patients
- Abdominal pain, number of adverse events grade 3 or 4 ([7]; 75 mg (n = 17)): 1
- Abdominal pain, number of adverse events, any grade ([7]; 75 mg (n = 17)): 5
- Cough, number of adverse events, any grade ([7]; 75 mg (n = 17)): 3
- Hyperglycemia, number of adverse events grade 3 or 4 ([7]; 75 mg (n = 17)): 4
- Hyperglycemia, number of adverse events, any grade ([7]; 75 mg (n = 17)): 5
- Mucosal inflammation, number of adverse events, any grade ([7]; 75 mg (n = 17)): 12
- patients discontinued from the study due to adverse events ([7]; 75 mg dose level): 3 patients
- patients who developed grade 1 to 2 mucositis ([7]; 75 mg dose level (17 patients)): Twelve
- Abdominal pain, number of adverse events grade 3 or 4 ([7]; 100 mg (n = 4)): 1 (1)
- Abdominal pain, number of adverse events, any grade ([7]; 100 mg (n = 4)): 1 (1)
- Anemia, number of adverse events, any grade ([7]; 100 mg (n = 4)): 1
- Anorexia, number of adverse events, any grade ([7]; 100 mg (n = 4)): 3
- Constipation, number of adverse events, any grade ([7]; 100 mg (n = 4)): 3
- Cough, number of adverse events, any grade ([7]; 100 mg (n = 4)): 1
- Diarrhea, number of adverse events, any grade ([7]; 100 mg (n = 4)): 2
- Dysgeusia, number of adverse events, any grade ([7]; 100 mg (n = 4)): 1
- Fatigue, number of adverse events, any grade ([7]; 100 mg (n = 4)): 3
- Hyperglycemia, number of adverse events, any grade ([7]; 100 mg (n = 4)): 0
- Hypophosphatemia, number of adverse events grade 3 or 4 ([7]; 100 mg (n = 4)): 1 (1)
- Hypophosphatemia, number of adverse events, any grade ([7]; 100 mg (n = 4)): 1 (1)
- Mucosal inflammation, number of adverse events grade 3 or 4 ([7]; 100 mg (n = 4)): 1
- Mucosal inflammation, number of adverse events, any grade ([7]; 100 mg (n = 4)): 4
- patients who required dosing delays and/or dose reduction secondary to mucositis ([7]; 100 mg dose level): 3 of 4
- patients who experienced mucositis ([7]; 100 mg dose level (4 patients)): 4 patients
- patients with mucositis grade ≥3 ([7]; 100 mg dose level (4 patients)): 1 patients
- patients who experienced an adverse event grade ≥3 ([7]; all 46 patients): 70%
- patients who required interruption of treatment or dose reduction on at least one occasion ([7]; all 46 patients): Twenty-eight
- deaths thought to be related to deforolimus ([7]; all patients): no deaths thought to be related to deforolimus
- patients with serious adverse events ([7]; all patients): 22 patients
- serious adverse events ([7]; all patients): Thirty-two
- incidence of hypercholesterolemia ([7]; all patients, weekly schedule): 7%
- incidence of hyperglycemia ([7]; all patients, weekly schedule): 22%
- incidence of hypertriglyceridemia ([7]; all patients, weekly schedule): 9%
- No. patients requiring dose interruptions or reductions [7, 8]: 0
- No. patients requiring dose reductions [7, 8]: 0
- No. patients requiring dose interruptions or reductions, at least possibly related to deforolimus ([7]; dose level 12.5 mg): 0
- No. patients requiring dose interruptions or reductions [7, 9]: 2
- No. patients requiring dose reductions [7, 9]: 0
- No. patients requiring dose interruptions or reductions, at least possibly related to deforolimus ([7]; dose level 25 mg): 0
- No. patients requiring dose interruptions or reductions [7, 10]: 3
- No. patients requiring dose reductions [7, 10]: 0
- No. patients requiring dose interruptions or reductions, at least possibly related to deforolimus ([7]; dose level 50 mg): 5
- No. patients requiring dose interruptions or reductions [7, 11]: 8
- No. patients requiring dose reductions [7, 11]: 3
- No. patients requiring dose interruptions or reductions, at least possibly related to deforolimus ([7]; dose level 75 mg): 9
- No. patients requiring dose interruptions or reductions [7, 12]: 12
- No. patients requiring dose reductions [7, 12]: 2
- No. patients requiring dose interruptions or reductions, at least possibly related to deforolimus ([7]; dose level 100 mg): 3 (3)
- No. patients requiring dose interruptions or reductions [7, 13]: 3 (3)
- No. patients requiring dose reductions [7, 13]: 2
- main dose-limiting toxicity (DLT) ([7]; i.v. once weekly): mucositis
- maximum tolerated dose (MTD) ([7]; i.v. over 30 min every 7 days, flat dosing): 75 mg
- treatment discontinuations thought to be possibly, probably or definitely related to the study drug ([7]; of six patients with treatment discontinued): 4 patients
- factor of increase in odds of more severe mucositis per 10 mg increase in dose ([7]; proportional odds model, univariate, 95% CI 1.21–2.07): 1.58

Compound: CO[C@H]1C[C@@H]2CC[C@@H](C)[C@@](O)(O2)C(=O)C(=O)N2CCCC[C@H]2C(=O)O[C@H]([C@H](C)C[C@@H]2CC[C@@H](O)[C@H](OC)C2)CC(=O)[C@H](C)/C=C(\C)[C@@H](O)[C@@H](OC)C(=O)[C@H](C)C[C@H](C)/C=C/C=C/C=C/1C [sirolimus, reference compound]
- metabolism by CYP3A4 (CYP3A4): primarily metabolized by CYP3A4
